Where two headings read alike, the source gives them in different places.
B1: purine nucleoside phosphorylase (PNP) (Rattus norvegicus) (protein)
chain: MENEFTYEDYQRTAEWLRSHTKHRPQVAVICGSGLGGLTAKLTQPQAFDYNEIPNFPQSTVQGHAGRLVFGFLNGRSCVMMQGRFHMYEGYSLSKVTFPVRVFHLLGVDTLVVTNAAGGLNPKFEVGDIMLIRDHINLPGFCGQNPLRGPNDERFGVRFPAMSDAYDRDMRQKAFNAWKQMGEQRELQEGTYIMSAGPTFETVAESCLLRMLGADAVGMSTVPEVIVARHCGLRVFGFSLITNKVVMDYNNLEKASHQEVLEAGKAAAQKLEQFVSILMESIPPRERAN
notes: Rat Erythrocytes; from tissue; host or cells: rat erythrocytes
B2: purine nucleoside phosphorylase (PNP) (Bos taurus) (protein)
chain: MANGYTYEDYQDTAKWLLSHTEQRPQVAVICGSGLGGLVNKLTQAQTFDYSEIPNFPESTVPGHAGRLVFGILNGRACVMMQGRFHMYEGYPFWKVTFPVRVFRLLGVETLVVTNAAGGLNPNFEVGDIMLIRDHINLPGFSGENPLRGPNEERFGVRFPAMSDAYDRDMRQKAHSTWKQMGEQRELQEGTYVMLGGPNFETVAECRLLRNLGADAVGMSTVPEVIVARHCGLRVFGFSLITNKVIMDYESQGKANHEEVLEAGKQAAQKLEQFVSLLMASIPVSGHTG
notes: Calf Spleen; from tissue; host or cells: calf spleen
B3: purine nucleoside phosphorylase (PNP) (Homo sapiens) (protein)
chain: MENGYTYEDYKNTAEWLLSHTKHRPQVAIICGSGLGGLTDKLTQAQIFDYGEIPNFPRSTVPGHAGRLVFGFLNGRACVMMQGRFHMYEGYPLWKVTFPVRVFHLLGVDTLVVTNAAGGLNPKFEVGDIMLIRDHINLPGFSGQNPLRGPNDERFGDRFPAMSDAYDRTMRQRALSTWKQMGEQRELQEGTYVMVAGPSFETVAECRVLQKLGADAVGMSTVPEVIVARHCGLRVFGFSLITNKVIMDYESLEKANHEEVLAAGKQAAQKLEQFVSILMASIPLPDKAS
notes: Human Erythrocytes; from tissue; host or cells: human erythrocytes

Assays:
Assay type in all cases: biochemical
[1] = target: T1, purine nucleoside phosphorylase (PNP) (Bos taurus, UniProt P55859); assay: PNP inhibition, coupled xanthine oxidase method of Kalckar (calf spleen PNP)
T1 construct: Calf Spleen; from tissue; host or cells: calf spleen
T1 sequence (P55859 1-289): B2 chain
Experimental: (§1) Purine nucleoside phophorylase (PNP) inhibitory activity can be determined by the coupled xanthine oxidase method of Kalckar, using inosine as the substrate (H.M.Kalckar, J. Biol. Chem. 167, 429-443 (1947)). […] The Ki for representative members of the compounds of formula 1 are tabulated in table 1 and are compared to the KM values of the substrate inosine using PNP from various sources. […] The presence of 2'-deoxyguanosine (about 10 µM), a natural metabolite, appears to be important in in vitro activity.

[2] = target: T2, purine nucleoside phosphorylase (PNP) (Rattus norvegicus, UniProt P85973); assay: PNP inhibition, coupled xanthine oxidase method of Kalckar (rat erythrocyte PNP)
T2 construct: Rat Erythrocytes; from tissue; host or cells: rat erythrocytes
T2 sequence (P85973 1-289): B1 chain

[3] = target: T3, purine nucleoside phosphorylase (PNP) (Homo sapiens, UniProt P00491); assay: PNP inhibition, coupled xanthine oxidase method of Kalckar (human erythrocyte PNP)
T3 construct: Human Erythrocytes; from tissue; host or cells: human erythrocytes
T3 sequence (P00491 1-289): B3 chain

[4] = substrate: OC[C@H]1O[C@@H](n2cnc3c(O)ncnc32)[C@H](O)[C@@H]1O; assay: PNP inhibition, coupled xanthine oxidase method of Kalckar (rat erythrocyte PNP); conditions: other: substrate KM for comparison; pH 7.4
[5] = substrate: OC[C@H]1O[C@@H](n2cnc3c(O)ncnc32)[C@H](O)[C@@H]1O; assay: PNP inhibition, coupled xanthine oxidase method of Kalckar (calf spleen PNP); conditions: other: substrate KM for comparison; pH 7.4
Experimental: as §1

[6] = substrate: OC[C@H]1O[C@@H](n2cnc3c(O)ncnc32)[C@H](O)[C@@H]1O; assay: PNP inhibition, coupled xanthine oxidase method of Kalckar (human erythrocyte PNP); conditions: other: substrate KM for comparison; pH 7.4

Row | Molecule | Ki [1] [M] | Ki [2] [M] | Ki [3] [M] | other results
1 | O=c1[nH]cnc2c1ncn2CCCCCCC(F)(F)P(=O)(O)O [9-(7-phosphono-7,7-difluoroheptyl)hypoxanthine] | 2.2e-06 | 1.6e-07 | 1e-07 | 
2 | Nc1nc2c(ncn2CCCCC(F)(F)P(=O)(O)O)c(=O)[nH]1 [9-(5-phosphono-5,5-difluoropentyl)guanine] |  | 3.5e-08 |  | 
3 | Nc1nc(O)c2ncn(CCCCCCCP(=O)(O)O)c2n1 [9-(7-phosphono-heptyl)guanine] | 1.2e-06 |  | 6.8e-07 | Ki ([2]; apparent dissociation constant, 1 mM inorganic phosphate, 0.1 M HEPES buffer (pH 7.4), inosine 0.05 mM to 0.15 mM as substrate, read-out: Ki (M) PNP SOURCE Rat Erythrocytes): 7.5e-08 M
4 | CCOP(=O)(O)C(F)(F)CCCCCCn1cnc2c(=O)[nH]c(N)nc21 [9-(7-phosphono-7,7-difluoroheptyl)guanine, ethyl ester] |  | 2.8e-07 |  | Ki ([1]; apparent dissociation constant, 1 mM inorganic phosphate, 0.1 M HEPES buffer (pH 7.4), inosine 0.05 mM to 0.15 mM as substrate, read-out: Ki (M) PNP SOURCE Calf Spleen): 3.3e-06 M; Ki ([3]; apparent dissociation constant, 1 mM inorganic phosphate, 0.1 M HEPES buffer (pH 7.4), inosine 0.05 mM to 0.15 mM as substrate, read-out: Ki (M) PNP SOURCE Human Erythrocytes): 8e-07 M
5 | Nc1nc2c(ncn2CCCCCCCC(F)(F)P(=O)(O)O)c(=O)[nH]1 [9-(8-phosphono-8,8-difluorooctyl)guanine] | 6.2e-07 | 4.6e-09 | 1.9e-07 | 
6 | Nc1nc2c(ncn2CCCCCC(F)(F)P(=O)(O)O)c(=O)[nH]1 [9-(6-phosphono-6,6-difluorohexyl)guanine] | 3.2e-07 | 1.8e-07 | 2.8e-07 | 
7 | Nc1nc2c(ncn2CCCCCCC(F)(F)P(=O)(O)O)c(=O)[nH]1 [9-(7-phosphono-7,7-difluoroheptyl)guanine] | 1.5e-07 | 9.6e-09 | 8e-08 | 
8 | B1 |  |  |  | Km [4]: 80 x 10⁻⁶ M
9 | B2 |  |  |  | Km [5]: 28 x 10⁻⁶ M
10 | B3 |  |  |  | Km [6]: 70 x 10⁻⁶ M

Reference: patent EP0338887B1, “Phosphonoalkylpurine derivatives” (MERRELL DOW PHARMACEUTICALS INC., priority 1988, dated 1989)
